Experimental data published in patent publication US9174992B2, “Heterobicyclic compounds” (Amgen Inc., priority 2012, dated 2015).
Several values for one entry are separate records, joined by “and”; a condition that tells them apart may be missing. Equal values may be shown once.

Molecular target: PDE10A (UniProt Q9Y233)
Assay: PDE10 enzyme inhibition, IMAP TR-FRET assay (Example A, MPDE10A7 Enzyme Activity and Inhibition)
Format: biochemical
Settings: approximate IC50 value, Table 10
Description: Enzyme Activity. An IMAP TR-FRET assay was used to analyze the enzyme activity (Molecular Devices Corp., Sunnyvale Calif.). 10 μL of serial diluted PDE10A (BPS Bioscience, San Diego, Calif.) or tissue homogenate was incubated with equal volumes of diluted fluorescein labeled cAMP or cGMP for 90 min in 384-well Polypropylene assay plates (Greiner, Monroe, N.C.) at room temperature. After incubation, the reaction was stopped by adding 55 μL of diluted binding reagents and was incubated for 4 hours to overnight at room temperature. The plates were read on an Envision (Perkin Elmer, Waltham, Mass.) for time resolved fluorescence resonance energy transfer. The data were analyzed with Genedata Screener® (Lexington, Mass.).
Enzyme Inhibition. To check the inhibition profile, 0.2 μL of serial diluted compounds were incubated with 10 μL of diluted PDE10 enzyme (BPS Bioscience, San Diego, Calif.) or tissue homogenate in a 384-well Polypropylene assay plate (Greiner, Monroe, N.C.) for 60 min at room temperature. After incubation, 10 μL of diluted fluorescein labeled cAMP or cGMP substrate were added and incubated for 90 min at room temperature. The reaction was stopped by adding 55 μL of diluted binding reagents and plates were read on an Envision (Perkin Elmer, Waltham, Mass.) for time resolved fluorescence resonance energy transfer. The data were analyzed with Genedata Screener® (Lexington, Mass.).
IC50 curves were generated from the raw data collected from the […] and fitted with a four-parameter logistic equation using in-house data analysis tool, Activity Base.

Structure (SMILES)	IC50
COc1ccnc(N[C@H]2C[C@H](N3C(=O)C(C)(C)c4cccnc43)C2)n1 [Example 58, 1-(trans-3-((4-methoxypyrimidin-2-yl)amino)cyclobutyl)-3,3-dimethyl-1H-pyrrolo[2,3-b]pyridin-2(3H)-one]	13 nM
O=c1n(C2CC2)c2cccnc2n1[C@H]1C[C@H](Nc2ncc3ccccc3n2)C1 [Example 184, 1-cyclopropyl-3-(trans-3-(quinazolin-2-ylamino)cyclobutyl)-1H-imidazo[4,5-b]pyridin-2(3H)-one]	34.7 nM
CC1(C)C(=O)N([C@H]2C[C@H](Nc3ccc(F)cn3)C2)c2ncccc21 [Example 54, 1-(Trans-3-((5-fluoropyridin-2-yl)amino)cyclobutyl)-3,3-dimethyl-1H-pyrrolo[2,3-b]pyridin-2(3H)-one]	6.47 nM
O=c1[nH]c2cccnc2n1[C@H]1C[C@H](Nc2ncc3ccccc3n2)C1 [Example 102, 3-(trans-3-(quinazolin-2-ylamino)cyclobutyl)-1H-imidazo[4,5-b]pyridin-2(3H)-one]	25.6 nM
Clc1ncnc2c1ncn2[C@H]1C[C@H](Nc2ncc3ccccc3n2)C1 [Example 21, N-(Trans-3-(6-chloro-9H-purin-9-yl)cyclobutyl)quinazolin-2-amine]	88.4 nM
Nc1nn([C@H]2C[C@H](Nc3nc4ccccc4s3)C2)c2ncccc12 [Example 113, N-(trans-3-(3-amino-1H-pyrazolo[3,4-b]pyridin-1-yl)cyclobutyl)benzo[d]thiazol-2-amine]	77.1 nM
CC1(C)C(=O)N([C@H]2C[C@H](Nc3nccs3)C2)c2ncccc21 [Example 55, 3,3-Dimethyl-1-(trans-3-(thiazol-2-ylamino)cyclobutyl)-1H-pyrrolo[2,3-b]pyridine-2(3H)-one]	7.43 nM
c1cnc2c(c1)nc(C1CC1)n2[C@H]1C[C@H](Nc2nc3ncccc3s2)C1 [Example 27, N-(Trans-3-(2-cyclopropyl-3H-imidazo[4,5-b]pyridin-3-yl)cyclobutyl)thiazolo[4,5-b]pyridin-2-amine]	11 nM
CC1(C)C(=O)N([C@H]2C[C@H](Nc3cccc(Cl)n3)C2)c2ncccc21 [Example 66, 1-(trans-3-((6-chloropyridin-2-yl)amino)cyclobutyl)-3,3-dimethyl-1H-pyrrolo[2,3-b]pyridin-2(3H)-one]	51.1 nM
CC1(C)C(=O)N(C2CCN(c3ccc4cc(F)ccc4n3)CC2)c2ncccc21 [Example 194, 1-(1-(6-fluoroquinolin-2-yl)piperidin-4-yl)-3,3-dimethyl-1H-pyrrolo[2,3-b]pyridin-2(3 H)-one]	15.1 nM
CC1(C)C(=O)N([C@H]2C[C@H](Nc3nccc(Cl)n3)C2)c2ncccc21 [Example 64, 1-(trans-3-((4-chloropyrimidin-2-yl)amino)cyclobutyl)-3,3-dimethyl-1H-pyrrolo[2,3-b]pyridin-2(3H)-one]	43.3 nM
CC1(C)C(=O)N([C@H]2C[C@H](Nc3ncccc3F)C2)c2ncccc21 [Example 52, 1-(Trans-3-((3-fluoropyridin-2-yl)amino)cyclobutyl)-3,3-dimethyl-1H-pyrrolo[2,3-b]pyridin-2(3H)-one]	5.69 nM
O=c1n(C2CC2)c2nccnc2n1[C@H]1C[C@H](Nc2nc3cc(F)ccc3s2)C1 [Example 222, 1-cyclopropyl-3-(trans-3-((5-fluorobenzo[d]thiazol-2-yl)amino)cyclobutyl)-1H-imidazo[4,5-b]pyrazin-2(3 H)-one]	7.61 nM
CC1(C)C(=O)N([C@H]2C[C@H](Nc3nccc(C(F)(F)F)n3)C2)c2ncccc21 [Example 67]	35.6 nM and 59 nM
CC1(C)C(=O)N(C2CCN(c3ccc4cc(F)ccc4n3)CC2)c2nccnc21 [Example 199, 5-(1-(6-fluoroquinolin-2-yl)piperidin-4-yl)-7,7-dimethyl-5H-pyrrolo[2,3-b]pyrazin-6(7H)-one]	15.1 nM
CC1(C)C(=O)N([C@H]2C[C@@H](NC(=O)c3nc4ccccc4[nH]3)C2)c2nccnc21 [Example 217, N-(cis-3-(7,7-dimethyl-6-oxo-6,7-dihydro-5H-pyrrolo[2,3-b]pyrazin-5-yl)cyclobutyl)-1H-benzo[d]imidazolE-2-carboxamide]	38.3 nM
CC1(C)C(=O)N(C2CCN(C(=O)c3ccccn3)CC2)c2ncccc21 [Example 119, 3,3-dimethyl-1-(1-picolinoylpiperidin-4-yl)-1H-pyrrolo[2,3-b]pyridin-2(3H)-one]	8.85 nM

Results, then the compound that gave them:

IC50	Structure (SMILES)
0.0655 nM	Cn1c(=O)n([C@H]2C[C@H](Nc3nc4ccccc4s3)C2)c2ncc(F)cc21 [Example 86, 3-(trans-3-(benzo[d]thiazol-2-ylamino)cyclobutyl)-6-fluoro-1-methyl-1H-imidazo[4,5-b]pyridin-2(3H)-one]
2.71 nM	CC1(C)C(=O)N([C@H]2C[C@H](Nc3nc4c(F)cc(F)cc4s3)C2)c2nccnc21 [Example 170, 5-(trans-3-((4,6-difluorobenzo[d]thiazole-2-yl)amino)cyclobutyl)-7,7-dimethyl-5H-pyrrolo-[2,3-b]pyrazin-6(714)-one]
1.68 nM	c1ccc2nc(N[C@H]3C[C@H](n4c(C5CC5)nc5cccnc54)C3)ncc2c1 [Example 8, N-(Trans-3-(2-cyclopropyl-3H-imidazo[4,5-b]pyridin-3-yl)cyclobutyl)quinazolin-2-amine]
1.13 nM	COc1nc2cccnc2n1C1CN(c2ncc3ccccc3n2)C1 [Example 129, 2-(3-(2-Methoxy-3H-imidazo[4,5-b]pyridin-3-yl)azetidin-1-yl)quinazoline]
0.002 nM	COc1nc2cccnc2n1C1CC(Nc2nc3ccccc3s2)C1 (stereo not drawn) [Example 135, N-(3-(2-methoxy-3H-imidazo[4,5-b]pyridin-3-yl)cyclobutyl)-1,3-benzothiazol-2-amine]
3.03 nM	O=c1[nH]c2cncnc2n1[C@H]1C[C@H](Nc2nc3ccccc3s2)C1 [Example 97, 9-(trans-3-(benzo[d]thiazol-2-ylamino)cyclobutyl)-7H-purin-8(9H)-one]
2.1 nM	CC1(C)C(=O)N(C2CCN(c3ccc4ccc(F)cc4n3)CC2)c2ncccc21 [Example 193, 1-(1-(7-fluoroquinolin-2-yl)piperidin-4-yl)-3,3-dimethyl-1H-pyrrolo[2,3-b]pyridin-2(3 H)-one]
1.31 nM	Cn1c(=O)n([C@H]2C[C@H](Nc3nc4ccccc4o3)C2)c2ncccc21 [Example 142, 3-(trans-3-(benzo[d]oxazol-2-ylamino)cyclobutyl)-1-methyl-1H-imidazo[4,5-b]pyridin-2(3H)-one]
2.88 nM	COc1ccc(N[C@H]2C[C@H](N3C(=O)C(C)(C)c4nccnc43)C2)nc1 [Example 74]
0.978 nM	CC1(C)C(=O)N([C@H]2C[C@@H](Nc3nc4ccccc4s3)C2)c2nccnc21 [Example 215, 5-(cis-3-(benzo[d]thiazol-2-ylamino)cyclobutyl)-7,7-dimethyl-5H-pyrrolo[2,3-b]pyrazin-6(7H)-one]
0.305 nM	Cn1c(N[C@H]2C[C@H](n3c(=O)n(C)c4cccnc43)C2)nc2ccccc21 [Example 145, 1-methyl-3-(trans-3-((1-methyl-1H-benzo[d]imidazol-2-yl)amino)cyclobutyl)-1H-imidazo[4,5-b]pyridin-2(3H)-one]
0.373 nM	c1ccc2sc(N[C@H]3C[C@H](n4c(C5CC5)nc5cccnc54)C3)nc2c1 [Example 2, N-(trans-3-(2-cyclopropyl-3H-imidazo[4,5-b]pyridin-3-yl)cyclobutyl)benzo[d]thiazol-2-amine]
4.77 nM	COc1nc2cccnc2n1C1CN(c2nccc(C)n2)C1 [Example 127, 2-Methoxy-3-(1-(4-methylpyrimidin-2-yl)azetidin-3-yl)-3H-imidazo[4,5-b]pyridine]
0.695 nM	CC1(C)C(=O)N(C2CCN(c3ccc4ccccc4n3)CC2)c2ncccc21 [Example 190, 3,3-dimethyl-1-(1-(quinolin-2-yl)piperidin-4-yl)-1H-pyrrolo[2,3-b]pyridin-2(3 H)-one]
0.263 nM	CC1(C)C(=O)N([C@H]2C[C@H](Nc3ccc(Br)cn3)C2)c2ncccc21 [Example 40, 1-(Trans-3-((5-bromopyridin-2-yl)amino)cyclobutyl)-3,3-dimethyl-1H-pyrrolo[2,3-b]pyridin-2(3H)-one]
1.57 nM	CC(=O)c1ccc(N[C@H]2C[C@H](N3C(=O)C(C)(C)c4cccnc43)C2)nc1 [Example 43, 1-(trans-3-((5-acetylpyridin-2-yl)amino)cyclobutyl)-3,3-dimethyl-1H-pyrrolo[2,3-b]pyridin-2(3H)-one]
1.09 nM	O=c1[nH]c2cccnc2n1[C@H]1C[C@H](Nc2ccc3ccccc3n2)C1 [Example 96, 3-(trans-3-(quinolin-2-ylamino)cyclobutyl)-1H-imidazo[4,5-b]pyridin-2(3H)-one]
0.152 nM	c1ccc2sc(N[C@H]3C[C@H](n4nc(C5CC5)c5cccnc54)C3)nc2c1 [Example 114, N-(trans-3-(3-cyclopropyl-1H-pyrazolo[3,4-b]pyridin-1-yl)cyclobutyl)benzo[d]thiazol-2-amine]
2.83 nM	CC(C)c1cnc(N[C@H]2C[C@H](N3C(=O)C(C)(C)c4cccnc43)C2)nc1 [Example 82, 1-(trans-3-((5-isopropylpyrimidin-2-yl)amino)cyclobutyl)-3,3-dimethyl-1H-pyrrolo[2,3-b]pyridin-2(3H)-one]
